Reference: ChEMBL document CHEMBL4400526, “Design, synthesis and anti-bacterial studies of piperazine derivatives against drug resistant bacteria” (2019)
Converted amounts (≈) assume the structure as drawn. The source made the active and inactive calls. The calls are words filed in the database; no cut-off is given here.

Legend:
Type in all cases: functional
Escherichia coli [1] = experiment: Antibacterial activity against Escherichia coli ATCC 25922 measured after overnight incubation
Pseudomonas aeruginosa [2] = experiment: Antibacterial activity against Pseudomonas aeruginosa ATCC 15442 measured after overnight incubation
Staphylococcus aureus [3] = experiment: Antibacterial activity against Staphylococcus aureus ATCC 6538 measured after overnight incubation
Bacillus spizizenii = experiment: Antibacterial activity against Bacillus subtilis ATCC 6633 measured after overnight incubation
Klebsiella pneumoniae = experiment: Antibacterial activity against Klebsiella pneumoniae ATCC 1705 measured after overnight incubation; conditions: ATCC BAA-1705
Staphylococcus aureus [4] = experiment: Antibacterial activity against methicillin-resistant Staphylococcus aureus clinical isolates measured after overnight incubation
Pseudomonas aeruginosa [5] = experiment: Antibacterial activity against Pseudomonas aeruginosa clinical isolates measured after overnight incubation
Streptococcus pyogenes = experiment: Antibacterial activity against Streptococcus hemolyticus clinical isolates measured after overnight incubation
Escherichia coli [6] = experiment: Antibacterial activity against Escherichia coli clinical isolates measured after overnight incubation
Escherichia coli [7] = experiment: Antibacterial activity against Escherichia coli
[8] = test system: Staphylococcus epidermidis; experiment: Antibacterial activity against Staphylococcus epidermidis
Staphylococcus aureus [9] = experiment: Antibacterial activity against Staphylococcus aureus

Compound	MIC (Escherichia coli [1])	MIC (Pseudomonas aeruginosa [2])	MIC (Staphylococcus aureus [3])	MIC (Bacillus spizizenii)	MIC (Klebsiella pneumoniae)	MIC (Staphylococcus aureus [4]) [µM]	MIC (Pseudomonas aeruginosa [5])	MIC (Escherichia coli [1]; read-out: MIC) [µM]	MIC (Pseudomonas aeruginosa [2]; read-out: MIC) [µM]	MIC (Streptococcus pyogenes)	MIC (Escherichia coli [6])	MIC50 (Escherichia coli [7]) [µg/mL]	MIC50 [8] [µg/mL]	MIC50 (Staphylococcus aureus [9]) [µg/mL]
Nc1ccc(C(=O)O)cc1	inactive	inactive	inactive	inactive	–	–	–	–	–	–	–	–	–	–
NS(=O)(=O)c1ccc(NCN2CCNCC2)cc1	inactive	inactive	inactive	inactive	inactive	–	–	–	–	–	–	–	–	–
O=C(O)c1ccc(NCN2CCN(c3cc4c(cc3F)c(=O)c(C(=O)O)cn4C3CC3)CC2)cc1	–	–	16.6 µM	16.6 µM	16.6 µM (≈ 7.98 µg/mL)	66.5 (≈ 32 µg/mL)	8.3 µM	8.3 (≈ 3.99 µg/mL)	8.3 (≈ 3.99 µg/mL)	8.3 µM	8.3 µM	–	–	–
NS(=O)(=O)c1ccc(NC(=O)CC2(CNCN3CCN(c4cc5c(cc4F)c(=O)c(C(=O)O)cn5C4CC4)CC3)CCCCC2)cc1	–	–	1.4 µM	1.4 µM	0.7 µM (≈ 0.468 µg/mL)	0.74 (≈ 0.495 µg/mL)	0.74 µM	0.7 (≈ 0.468 µg/mL)	0.7 (≈ 0.468 µg/mL)	–	0.74 µM	–	–	–
O=C(O)CC1(CNCN2CCNCC2)CCCCC1	–	–	119 µM	119 µM	238 µM (≈ 64 µg/mL)	–	–	238 (≈ 64 µg/mL)	238 (≈ 64 µg/mL)	–	–	–	–	–
O=C(O)CC1(CNCCN2CCN(c3cc4c(cc3F)c(=O)c(C(=O)O)cn4C3CC3)CC2)CCCCC1	–	–	30.2 µM	30.2 µM	7.5 µM (≈ 3.96 µg/mL)	30.2 (≈ 16 µg/mL)	3.7 µM	7.5 (≈ 3.96 µg/mL)	15.1 (≈ 7.98 µg/mL)	–	3.7 µM	–	–	–
Nc1ccc(S(N)(=O)=O)cc1	inactive	inactive	inactive	inactive	–	–	–	–	–	–	–	–	–	–
C=CC1=C(C(=O)O)N2C(=O)[C@@H](NC(=O)/C(=N\OCC(=O)O)c3csc(N)n3)[C@H]2SC1 [CEFIXIME]	–	–	–	0.06 µM	–	–	0.5 µg/mL	0.06 (≈ 0.0272 µg/mL)	0.06 (≈ 0.0272 µg/mL)	0.25 µg/mL	0.75 µg/mL	–	–	–
O=C(O)c1cn(C2CC2)c2cc(N3CCNCC3)c(F)cc2c1=O [CIPROFLOXACIN]	–	–	8 µg/mL	8 µg/mL	–	–	–	–	–	–	–	–	–	–
NNC(=O)c1ccncc1	inactive	inactive	inactive	inactive	–	–	–	–	–	–	–	–	–	–
O=C(NNCCN1CCN(c2cc3c(cc2F)c(=O)c(C(=O)O)cn3C2CC2)CC1)c1ccncc1	–	–	1 µM	1 µM	4 µM (≈ 1.98 µg/mL)	4 (≈ 1.98 µg/mL)	8 µM	4 (≈ 1.98 µg/mL)	4 (≈ 1.98 µg/mL)	8 µM	8 µM	–	–	–
CC[C@H]1OC(=O)[C@H](C)[C@@H](O[C@H]2C[C@@](C)(OC)[C@@H](O)[C@H](C)O2)[C@H](C)[C@@H](O[C@@H]2O[C@H](C)C[C@H](N(C)C)[C@H]2O)[C@](C)(O)C[C@@H](C)/C(=N\OCOCCOC)[C@H](C)[C@@H](O)[C@]1(C)O [ROXITHROMYCIN]	–	–	0.039 µM	–	–	–	–	–	–	–	–	–	–	–
NS(=O)(=O)c1ccc(NCCN2CCN(c3cc4c(cc3F)c(=O)c(C(=O)O)cn4C3CC3)CC2)cc1	–	–	3.7 µM	3.7 µM	7.5 µM (≈ 3.97 µg/mL)	3.7 (≈ 1.96 µg/mL)	7.5 µM	7.5 (≈ 3.97 µg/mL)	7.5 (≈ 3.97 µg/mL)	3.7 µM	7.5 µM	–	–	–
O=C(O)c1ccc(NCN2CCNCC2)cc1	1090 µM (≈ 256 µg/mL)	1090 µM (≈ 256 µg/mL)	272 µM	272 µM	1090 µM (≈ 256 µg/mL)	–	–	–	–	–	–	–	–	–
NCC1(CC(=O)O)CCCCC1	inactive	inactive	inactive	inactive	–	–	–	–	–	–	–	–	–	–
NS(=O)(=O)c1ccc(NCN2CCN(c3cc4c(cc3F)c(=O)c(C(=O)O)cn4C3CC3)CC2)cc1	–	–	0.9 µM	0.9 µM	1.9 µM (≈ 0.98 µg/mL)	7.7 (≈ 3.97 µg/mL)	7.7 µM	1.9 (≈ 0.98 µg/mL)	1.9 (≈ 0.98 µg/mL)	7.7 µM	7.7 µM	–	–	–
O=C(O)CC1(CNCN2CCN(c3cc4c(cc3F)c(=O)c(C(=O)O)cn4C3CC3)CC2)CCCCC1	–	–	–	62.1 µM	15.5 µM (≈ 7.98 µg/mL)	–	7.7 µM	15.5 (≈ 7.98 µg/mL)	15.5 (≈ 7.98 µg/mL)	62.1 µM	7.7 µM	–	–	–
COc1cc(Cc2cnc(N)nc2N)cc(OC)c1OCCN1CCN(c2cc3c(cc2F)c(=O)c(C(=O)O)cn3C2CC2)CC1	–	–	–	–	–	–	–	–	–	–	–	1 (≈ 1.58 µM)	0.5 (≈ 0.789 µM)	0.5 (≈ 0.789 µM)
O=C(O)c1ccc(NCCN2CCN(c3cc4c(cc3F)c(=O)c(C(=O)O)cn4C3CC3)CC2)cc1	–	–	2 µM	2 µM	2 µM (≈ 0.989 µg/mL)	16.1 (≈ 7.96 µg/mL)	1 µM	1 (≈ 0.495 µg/mL)	1 (≈ 0.495 µg/mL)	–	1 µM	–	–	–
COc1nc(NNC(=O)c2ccncc2)nc(N2CCNCC2)n1	–	–	49.2 µM	49.2 µM	197 µM (≈ 65 µg/mL)	–	–	98.4 (≈ 32.5 µg/mL)	98.4 (≈ 32.5 µg/mL)	–	–	–	–	–
O=C(NNCN1CCN(c2cc3c(cc2F)c(=O)c(C(=O)O)cn3C2CC2)CC1)c1ccncc1	–	–	4.1 µM	7.7 µM	7.7 µM (≈ 3.7 µg/mL)	2 (≈ 0.961 µg/mL)	33.2 µM	7.7 (≈ 3.7 µg/mL)	7.7 (≈ 3.7 µg/mL)	8.3 µM	33.2 µM	–	–	–
O=C(NNCN1CCNCC1)c1ccncc1	inactive	inactive	inactive	inactive	inactive	–	–	–	–	–	–	–	–	–
